Source: US8026231B2, “Aminothiolester compounds, pharmaceutical and cosmetic compositions containing same and uses thereof” (CNRS, priority 2000, dated 2011)

Key:
BAF3-bcl2 G18 cells = experiment: Apoptosis induction (DNA fragmentation) in BAF3-bcl2 clone G18, 24 h; assay type: cell-based, mouse
Description: (§1) The BAF3-bcl2 cells correspond to BAF3 cells (mouse lymphocyte cells) tranfected with the bcl2 gene. Among these cells, four lines known as H16, G18, B14 and G21 overexpress the bcl2 gene.
(§2) Whereas the BAF3-b0 cells undergo apoptosis (more than 80% of the cells) in the absence of interleukin 3 (IL3) in 16 hours [according to Collins, M. K. L., Marvel, J., Malde, P. & Lopez-Rivas, A., J. Exp. Med. 176, 1043-1051, (1992)], the BAF3-bcl2 cells show no sign of apoptosis in the absence of IL3. They are thus apoptosis-resistant.
(§3) The procedure which was used is as follows: • The BAF3-b0 or BAF3-bcl2 cells, cultured in the presence of IL3, were labelled by a method adapted from that disclosed in Wright, S. et al., J. of Cell. Biochem. 48, 344-355, (1992).
(§4) 10^5 cells/ml were incubated with 4.62 KBq.ml^−1 [^3H]-thymidine for 40 hours at 37° C. After two washes with culture medium, 2.5×10^6 cells were cultured in the presence of the test compound.
(§5) After incubating for 24 hours, these cells were recovered by centrifugation at 400×g for 5 minutes and washed 3 times with PBS buffer. The cells recovered in the pellet were lysed in 2 ml of 0.1% Triton X-100, 20 mM EDTA, 5 mM Tris pH 8 and centrifuged at 30 000×g at 4° C. for 30 minutes.
(§6) The supernatants were recovered and the pellets dissolved in 0.3 ml of 0.5N NaOH.
(§7) Aliquots of the culture medium (1 ml), of the supernatant (0.3 ml) and of the dissolved pellet (0.1 ml) were assayed in a scintillation counter.
(§8) The percentage of DNA fragments is calculated in the following way:
(§9) The percentage of fragmentation of the DNA is a direct measure of the apoptosis which the cells have undergone.

BAF3 bcl2 cells = experiment: Growth of BAF3 bcl2 cells (viable cell count, Trypan blue); assay type: cell-based, murine; conditions: 50% inhibition of cell growth
Description: The cells used correspond to two cell lines: metastatic cells of human prostate cancer (DU145) and murine lymphoid cells transfected with the human bcl2 gene (BAF3 bcl2).
The procedure used for the tests on BAF3 bcl2 cells is as follows: • 10^5 cells are incubated in the various wells of a microplate in 1 ml of culture medium. After incubation for 4 hours, the test compounds are added to the wells containing the BAF3 bcl2 cells.
For the BAF3 bcl2 cells, the growth is measured by counting the viable cells in the presence of 0.1% Trypan blue. The control consists of thioampal, disclosed in patent application WO 98/44919.
The IC50 concentration is the concentration corresponding to a 50% inhibition of cell growth.

L1210 cells = experiment: Growth of L1210 cells (viable cell count, Trypan blue); assay type: cell-based, mouse; conditions: 50% inhibition of growth
Description: The cells used correspond to various cell lines: human lung normal embryonic fibroblasts (MRC5), mouse melanoma cells (B16), mouse lymphocytic leukaemia cells (L1210) and L1210T cells obtained by infecting L1210 cells with a retroviral vector bearing human ALDH1 cDNA.
The procedure used for the tests on the L1210 cells is as follows: • 10^5 cells are incubated in the various wells of a microplate in 1 ml of culture medium. After incubating for 4 hours, the test compounds are added to the wells containing the L1210 cells.
For the L1210 cells, the growth is measured by counting the viable cells in the presence of 0.1% Trypan blue.
The IC50 concentration is the concentration corresponding to a 50% inhibition of growth of the cells.

BAF3-bcl2 B14 cells = experiment: Apoptosis induction (DNA fragmentation) in BAF3-bcl2 clone B14, 24 h; assay type: cell-based, mouse
Description: as §1, §2, §3, §4, §5, §6, §7, §8, §9

BAF3-b0 cells = experiment: Apoptosis induction (DNA fragmentation) in BAF3-b0 cells, 24 h; assay type: cell-based, mouse
Description: as §1
Hereinbelow, the cells known as BAF3-b0 correspond to BAF3 cells not transfected with the bcl2 gene.
as §2, §3, §4, §5, §6, §7, §8, §9

R7 cells = experiment: Growth of R7 cells which overexpress the MDR gene; assay type: cell-based; conditions: increasing concentrations, 72 h, FIGS. 7 and 8
Description: 10^5 cells were incubated in the various wells of a microplate in 1 ml of culture medium. These are R7 cells, on the one hand, and K562 cells, on the other hand.
After incubating for 4 hours, the test compound (compound of Example 1 according to the invention, on the one hand, and daunorubicin, on the other hand) was added to the wells containing the cells.
After 72 hours, the cells were collected at different times.
The growth of the cells was measured by counting the viable cells in the presence of 0.1% Trypan blue.
FIGS. 7 and 8 respectively represent the percentage inhibition (I %) by daunorubicin and the compound of Example 1 on the growth of the R7 and K562 cells, obtained at increasing concentrations C. The results obtained with the K562 cells are symbolized by ♦ and those obtained with the R7 cells are symbolized by ▴.

[1] = test system: normal human prostate cells; experiment: Combination of two compounds of the invention on normal human prostate cells; assay type: cell-based; conditions: 2 μM
Description: 10^5 normal human prostate cells or 10^5 cancerous human prostate cells (DU145) are incubated in various wells of a microplate in 1 ml of culture medium.
The compounds are added 4 hours after placing the cells in the wells.
After 72 hours, the cells are removed at different times. The DU145 cells or the normal cells are washed twice with PBS and recovered directly with 0.1M sodium chloride.
The effect on the growth of the DU145 cells or the normal cells is measured by protein assay according to the Lowry method (Lowry, O. H., Rosenbrough, N. J., Farr, A. L. and Randall, J. Biol. Chem. 193, 265-275, (1951)) and DNA assay by the Hoechst method (West, D. C., Sattar, A. and Kumar, S., Anal. Biochem. 147, 289-295, (1985)).

bcl2 H16 cells = experiment: DNA fragmentation of bcl2 H16 cells, 6 h incubation; assay type: cell-based, mouse
Description: as §1, §3, §4, §5, §6, §7, §8, §9
The procedure for the test given in Table 4 below is identical to the previous procedure except that the incubation time is 6 hours instead of 24 hours: […]

With `CSC(=O)C#CC(C)(C)N(C)C` [Example 1, S-methyl 4-dimethyl-amino-4-methyl-2-pentynethioate] the “DNA fragmentation (%)” value (BAF3-bcl2 G18 cells; G18, 1 μM) was 0.6%, the “DNA fragmentation (%)” value (BAF3-bcl2 G18 cells; G18, 2 μM) was 7.3% and the “DNA fragmentation (%)” value (BAF3-bcl2 G18 cells; G18, 4 μM) was 52.7%. For the same molecule, the “DNA fragmentation (%)” value (BAF3-bcl2 G18 cells; G18, 8 μM) was 84.3%, the IC50 (BAF3 bcl2 cells) was 0.25 µM and the IC50 (L1210 cells) was 1.2 µM. The “DNA fragmentation (%)” value (BAF3-bcl2 B14 cells; B14, 1 μM) was 0%, the “DNA fragmentation (%)” value (BAF3-bcl2 B14 cells; B14, 2 μM) was 2.0% and the “DNA fragmentation (%)” value (BAF3-bcl2 B14 cells; B14, 4 μM) was 44.1%. For the same molecule, the “DNA fragmentation (%)” value (BAF3-bcl2 B14 cells; B14, 8 μM) was 90.0%, the “DNA fragmentation (%)” value (BAF3-b0 cells; b0, 1 μM) was 5.0% and the “DNA fragmentation (%)” value (BAF3-b0 cells; b0, 2 μM) was 10.6%. The “DNA fragmentation (%)” value (BAF3-b0 cells; b0, 4 μM) was 46.4%, the “DNA fragmentation (%)” value (BAF3-b0 cells; b0, 8 μM) was 71.1% and the “Inhibition of the growth of the R7 cells” value (R7 cells) was “very strongly inhibits the growth of the R7 cells”. For the same molecule, the “% Inhibition of normal human prostate cells” value [1] was 3.7%, the “% fragmentation of the DNA of the bcl2 H16 cells” value (“% fragmentation” below) (bcl2 H16 cells; 50 μM) was 2.15% and the “% fragmentation” value (bcl2 H16 cells; 100 μM) was 0%. For the same molecule, the “% fragmentation” value (bcl2 H16 cells; 200 μM) was 30.4%, the “% fragmentation” value (bcl2 H16 cells; 400 μM) was 83.8% and the “% fragmentation” value (bcl2 H16 cells; 600 μM) was 81.5%.
